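These data come from cells grown in 96-well plates and exposed to compound for 48 hours at five concentrations. At the GI50, growth is halved. TGI: concentration producing complete growth inhibition.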
Experiments:
Assay in all cases: inhibition of tumour cell growth, NCI panel, 48 h
[1] = system: HCC-2998 colon
[2] = system: MCF7 breast
[3] = system: MOLT-4 leukemia
[4] = system: PC-3 prostate
[5] = system: SF-295 CNS
[6] = system: SN12C renal
[7] = system: U251 CNS
[8] = system: UACC-257 melanoma
[9] = system: UO-31 renal
[10] = system: EKVX NSCLC

For O=S(=O)(NCCCNc1nccc(-c2c(-c3ccc(F)cc3)nc3sccn23)n1)c1ccc(F)cc1, the GI50 [1] was 20.6 µM, the TGI [1] was greater than 100 µM and the GI50 [2] was 3.24 µM. The TGI [2] was greater than 100 µM, the GI50 [3] was 8.08 µM and the TGI [3] was greater than 100 µM. For the same compound, the GI50 [4] was 9.54 µM, the TGI [4] was greater than 100 µM and the GI50 [5] was 20.6 µM. For the same compound, the TGI [5] was greater than 100 µM, the GI50 [6] was 9.04 µM and the TGI [6] was greater than 100 µM. It also gave a GI50 [7] of 8.87 µM, a TGI [7] greater than 100 µM and a GI50 [8] of 21.9 µM. The TGI [8] was greater than 100 µM, the GI50 [9] was 3.8 µM and the TGI [9] was greater than 100 µM.
Work on CC(=O)[CH-]C(C)=O.CC(=O)[CH-]C(C)=O.CC(=O)[CH-]C(C)=O.[Ga+3] yielded a GI50 [10] greater than 100 µM, a TGI [10] greater than 100 µM and a GI50 [1] greater than 100 µM. The TGI [1] was greater than 100 µM, the GI50 [5] was greater than 100 µM and the TGI [5] was greater than 100 µM. It also gave a GI50 [6] greater than 100 µM, a TGI [6] greater than 100 µM and a GI50 [7] greater than 100 µM. The TGI [7] was greater than 100 µM, the GI50 [9] was greater than 100 µM and the TGI [9] was greater than 100 µM.
Compound O=[N+]([O-])/C=C/c1ccc(Cl)cc1Cl has a TGI [1] of 29 µM, a TGI [3] of 45.7 µM and a TGI [5] of 32 µM. The TGI [7] was 20.5 µM, the TGI [8] was 27.4 µM and the TGI [9] was 29.8 µM.
Compound CC(N)CC(=O)O (stereo not drawn) has a TGI [10] greater than 5000 µM, a TGI [1] greater than 5000 µM and a TGI [3] greater than 5000 µM. It also gave a TGI [5] greater than 5000 µM, a TGI [6] greater than 5000 µM and a TGI [7] greater than 5000 µM. The TGI [8] was greater than 5000 µM and the TGI [9] was greater than 5000 µM.
N#Cc1cc2c(cc1Cl)Sc1nnc(Nc3cccc4ccccc34)n1S2(=O)=O gave a GI50 [10] of 20.2 µM, a TGI [10] of 39.6 µM and a GI50 [2] of 2.1 µM. It also gave a TGI [2] of 4.8 µM, a GI50 [3] of 3.84 µM and a TGI [3] greater than 100 µM. For the same compound, the GI50 [4] was 4.75 µM, the TGI [4] was 18 µM and the GI50 [5] was 16.8 µM. It also gave a TGI [5] of 31.8 µM, a GI50 [6] of 2.51 µM and a TGI [6] of 6.73 µM. For the same compound, the GI50 [7] was 3.23 µM, the TGI [7] was 10.7 µM and the GI50 [8] was 14.8 µM. It also gave a TGI [8] of 30.1 µM, a GI50 [9] of 7.41 µM and a TGI [9] of 20.5 µM.
With O=[N+]([O-])c1cc(Cc2cc([N+](=O)[O-])c3cccnc3c2O)c(O)c2ncccc12 the TGI [10] was 61.9 µM, the TGI [2] was 29.6 µM and the TGI [3] was greater than 30.4 µM. The TGI [4] was 23.4 µM, the TGI [5] was 37.2 µM and the TGI [6] was greater than 65.3 µM. The TGI [7] was 19.1 µM, the TGI [8] was 14.1 µM and the TGI [9] was 21.8 µM.
CC(C)N(Cc1ccc(F)cc1)c1ccc(CO)c(Cl)c1 showed a GI50 [1] of 2.81 µM, a TGI [1] of 20 µM and a GI50 [2] of 0.181 µM. For the same compound, the TGI [2] was 13.2 µM, the GI50 [3] was 11 µM and the TGI [3] was 32.6 µM. For the same compound, the GI50 [4] was 11.4 µM, the TGI [4] was 24.2 µM and the GI50 [5] was 0.25 µM. The TGI [5] was 11.8 µM, the GI50 [6] was 10.8 µM and the TGI [6] was 23.2 µM. For the same compound, the GI50 [7] was 0.37 µM, the TGI [7] was 14.4 µM and the GI50 [8] was 0.0837 µM. It also gave a TGI [8] of 0.316 µM, a GI50 [9] of 0.732 µM and a TGI [9] of 14.2 µM.
Compound NC(=O)CC(N)c1nn[nH]n1 (stereo not drawn) has a TGI [10] greater than 100 µM, a TGI [2] greater than 100 µM and a TGI [3] greater than 100 µM. For the same compound, the TGI [4] was greater than 100 µM, the TGI [5] was greater than 100 µM and the TGI [6] was greater than 100 µM. It also gave a TGI [7] greater than 100 µM, a TGI [8] greater than 100 µM and a TGI [9] greater than 100 µM.
With COc1ccc2nc3cc(Cl)ccc3c(N3CCN(c4ccnc(N5CCN(C)CC5)n4)CC3)c2c1 the GI50 [1] was 1.99 µM, the TGI [1] was 3.69 µM and the GI50 [3] was 2.38 µM. For the same compound, the TGI [3] was 5.81 µM, the GI50 [4] was 1.92 µM and the TGI [4] was 3.87 µM. It also gave a GI50 [5] of 19.5 µM, a TGI [5] of 54.1 µM and a GI50 [6] of 2.84 µM. The TGI [6] was 8.37 µM, the GI50 [7] was 1.77 µM and the TGI [7] was 3.43 µM. It also gave a GI50 [8] of 11.4 µM, a TGI [8] of 24.4 µM and a GI50 [9] of 1.77 µM. The TGI [9] was 3.41 µM.
In the case of O=C(c1c(O)cc(O)cc1O)C1Cc2ccccc21 (stereo not drawn), the TGI [1] is reported as greater than 100 µM, the TGI [3] is reported as greater than 100 µM and the TGI [5] is reported as greater than 100 µM. It also gave a TGI [6] greater than 100 µM, a TGI [7] greater than 100 µM and a TGI [8] greater than 100 µM. The TGI [9] was greater than 100 µM.
In the case of CCOC(=O)C(CCCNC(=O)OC(C)(C)C)N(Cc1ccc(OC)cc1OC)C(=O)CC(=O)CP(=O)(OCC)OCC (stereo not drawn), the TGI [10] is reported as greater than 100 µM, the TGI [1] is reported as greater than 100 µM and the TGI [3] is reported as greater than 100 µM. The TGI [5] was greater than 100 µM, the TGI [6] was greater than 100 µM and the TGI [7] was greater than 100 µM. It also gave a TGI [8] greater than 100 µM and a TGI [9] greater than 100 µM.
In the case of Cn1c(C(=O)c2cccc3ccccc23)nc2ccccc21, the GI50 [1] is reported as greater than 100 µM, the TGI [1] is reported as greater than 100 µM and the GI50 [2] is reported as 3.81 µM. The TGI [2] was greater than 100 µM, the GI50 [3] was greater than 100 µM and the TGI [3] was greater than 100 µM. It also gave a GI50 [4] greater than 100 µM, a TGI [4] greater than 100 µM and a GI50 [5] greater than 100 µM. It also gave a TGI [5] greater than 100 µM, a GI50 [6] greater than 100 µM and a TGI [6] greater than 100 µM. It also gave a GI50 [7] greater than 100 µM, a TGI [7] greater than 100 µM and a GI50 [8] greater than 100 µM. For the same compound, the TGI [8] was greater than 100 µM, the GI50 [9] was 46.1 µM and the TGI [9] was greater than 100 µM.
C=C1C(=O)O[C@H]2[C@H]1CC/C(COC(=O)NCc1c[nH]c3ccc(F)cc13)=C\CC[C@@]1(C)O[C@@H]21 gave a GI50 [10] of 1.89 µM, a TGI [10] of 4.51 µM and a GI50 [1] of 1.77 µM. It also gave a TGI [1] of 3.41 µM, a GI50 [3] of 1.42 µM and a TGI [3] of 5.07 µM. The GI50 [4] was 1.48 µM, the TGI [4] was 3.05 µM and the GI50 [5] was 4.29 µM. It also gave a TGI [5] of 16.6 µM, a GI50 [6] of 1.32 µM and a TGI [6] of 2.84 µM. For the same compound, the GI50 [7] was 2.35 µM, the TGI [7] was 5.81 µM and the GI50 [8] was 1.69 µM. It also gave a TGI [8] of 3.29 µM, a GI50 [9] of 1.52 µM and a TGI [9] of 2.87 µM.
CC(=O)OCC(CC[CH2][Sn]([Cl])([Cl])[c]1ccccc1)OC(C)=O (stereo not drawn) was tested, and the GI50 [10] was 44.4 µM, the TGI [10] was greater than 100 µM and the GI50 [1] was 28.2 µM. For the same compound, the TGI [1] was 83.1 µM, the GI50 [3] was 22 µM and the TGI [3] was 63.7 µM. The GI50 [5] was 24.5 µM, the TGI [5] was 60 µM and the GI50 [6] was 21 µM. The TGI [6] was 41 µM, the GI50 [7] was 20.4 µM and the TGI [7] was 38.5 µM. The GI50 [8] was 32.2 µM, the TGI [8] was 95.4 µM and the GI50 [9] was 17.2 µM. The TGI [9] was 33 µM.
CN1CCCC1c1cccnc1.O=C(O)c1ccccc1O.O=C([O-])c1ccccc1[OH2+].O=C([O-])c1ccccc1[OH2+].[Mn+2] (stereo not drawn) was tested, and the GI50 [10] was greater than 100 µM, the TGI [10] was greater than 100 µM and the GI50 [2] was 40.3 µM. The TGI [2] was greater than 100 µM, the GI50 [3] was 64.9 µM and the TGI [3] was greater than 100 µM. The GI50 [4] was 58.1 µM, the TGI [4] was greater than 100 µM and the GI50 [5] was greater than 100 µM. It also gave a TGI [5] greater than 100 µM, a GI50 [6] greater than 100 µM and a TGI [6] greater than 100 µM. It also gave a GI50 [7] greater than 100 µM, a TGI [7] greater than 100 µM and a GI50 [8] of 56.7 µM. It also gave a TGI [8] greater than 100 µM, a GI50 [9] greater than 100 µM and a TGI [9] greater than 100 µM.
N#CC1C(N)=NNC12Nc1ccccc1S2 (stereo not drawn) was tested, and the GI50 [10] was 15.4 µM, the TGI [10] was 60.9 µM and the GI50 [2] was 37.5 µM. The TGI [2] was greater than 100 µM, the GI50 [4] was 14.1 µM and the TGI [4] was greater than 100 µM. It also gave a GI50 [5] of 17.2 µM, a TGI [5] of 64.2 µM and a GI50 [6] of 24.4 µM. The TGI [6] was 60.2 µM, the GI50 [7] was 5.84 µM and the TGI [7] was 20.3 µM. It also gave a GI50 [8] of 13.6 µM, a TGI [8] of 44.4 µM and a GI50 [9] of 33.1 µM. It also gave a TGI [9] greater than 100 µM.
C[P+]1(c2ccccc2)CCCCC1 was tested, and the TGI [10] was greater than 100 µM, the TGI [1] was greater than 100 µM and the TGI [3] was greater than 100 µM. For the same compound, the TGI [5] was greater than 100 µM, the TGI [6] was greater than 100 µM and the TGI [7] was greater than 100 µM. The TGI [8] was greater than 100 µM and the TGI [9] was greater than 100 µM.

Source: PubChem BioAssay (NCI)
